# Entries after “also recorded” stand apart in the source; their conditions may differ.
# Columns and labels:
# H9c2 cardiac myoblasts [1] = assay: H9c2 cell protection from H2O2-mediated oxidative stress, CCK-8; format: cell-based, rat; conditions: then H2O2 200 μM
# Protocol: The cytoprotective effects of 1a was then measured against oxidative stress.
# H9c2 embryonic rat heart myoblasts were obtained from the American Type Culture Collection. Cells were grown in Dulbecco's minimal essential medium (DMEM), supplemented with fetal bovine serum (FBS) 10%, penicillin 100 U/mL and streptomycin 100 μg/mL. They were propagated in T75-flasks, split before reaching 70-80% confluence (usually every day or every second day), and used within 11 passages. Cells were passaged to tissue culture treated 96-well microtiter plates at the specified density in 180 μL volumes and incubated for 24 h.
# Cells were seeded at a density of 5×10^3 cells/well. After 24 h, precursor 1a or by-product 4a was added at 20 μL volumes using DMSO:H2O (<0.01% DMSO as the vehicle). Cells were incubated for 2 h before media was removed and the cells gently washed with PBS (pH 7.4). Then, 180 μL of fresh media and 20 μL H2O2 diluted into H2O were added and cells were incubated for an additional 2 h. At the completion of H2O2 exposure, each well is carefully washed 3 times with PBS (pH 7.4) before adding 100 μL of media, without-FBS, containing 10% v/v CCK-8 (Dojindo) and incubated for 3 h prior to obtaining absorbance values at 450 nm. The relative % viability was calculated as 100 times the ratio of the Abs450 (pre-treated, H2O2-exposed) over Abs450 (vehicle-treated, non H2O2-exposed).
# FA fibroblasts (GM04078) = assay: Cytoprotection against H2O2 stress in FA fibroblasts, CCK8; format: cell-based, human; conditions: 4 h pretreatment, H2O2 75 μM for 4 h
# Protocol: FIG. 10A, pretreatment of AST with varying concentrations in FA fibroblasts (GM04078, Coriell Institute) for 4 h followed by 4 h treatment with H2O2. Viability was measured using CCK8 assay. FIG. 10B, pretreatment of AST with varying concentrations in FA fibroblasts for 4 h followed by treatment with erastin for 24 h. […] Group comparisons are determined by a one-way analysis of variance (ANOVA) with Dunnet's correction post-hoc test using GraphPad Prism 8;
# Initially, we measured the cytotoxicity of AST in FA skin fibroblasts (GM04078), obtained from the Coriell Institute, to ensure that the RSSH donor itself is not cytotoxic. […] We then measured the ability of AST to confer cytoprotection in FA fibroblasts against hydrogen peroxide (H2O2) stress.
# FA fibroblasts [2] = assay: Lipid peroxidation, C11-BODIPY (581/591) flow cytometry; format: cell-based, human; conditions: 50 μM pre-treatment for 4 h, erastin 10 μM
# From the text: Blue represents DMSO-treated cells, red represents erastin treated cells, and green represents reduction of lipid peroxidation in live cells pretreated with AST;
# The reduction of FXN levels in FA increases mitochondrial iron accumulation, ultimately leading to iron-dependent accumulation of lipid ROS and subsequent lipid peroxidation. […] As has been reported previously, we employed C11-BODIPY (581/591) to monitor a shift in fluorescence of oxidized C11-BODIPY. […] Dixon et al., 2012; Martinez et al., 2020.
# [3] = system: transferrin receptor 1 (TFR1); assay: TFR1 protein expression, immunoblot; format: cell-based, human; conditions: 25 and 50 μM for 4 h, erastin 24 h
# Protocol: (§1) FIG. 14A, FIG. 14B, FIG. 14C, and FIG. 14D show: FIG. 14A and FIG. 14B pretreatment of AST (25 and 50 μM) for 4 h followed by 24 h treatment with erastin ([…]) immunoblots for indicated proteins of lysates derived from FA fibroblasts. FIG. 14C and FIG. 14D, relative abundance of TFR1 and FTH1 proteins normalized to β-actin loading control. Results are the means+SEM of n=3 for all concentrations. *P<0.05, **P<0.005, comparisons with the erastin group. Group comparisons are determined by a one-way analysis of variance (ANOVA) with Dunnet's correction post-hoc test using GraphPad Prism 8. Samples were run on the same gel for SDS-Page gel electrophoresis in nonconsecutive lanes;
# (§2) To test this hypothesis, we studied the effect of RSSH on TFR1 and FTH1 expression levels. We anticipated that the impacts of RSSH would result in downregulation of TFR1 and upregulation of FTH1. […] Feng et al., 2020; Park and Chung, 2019.
# FA fibroblasts [4] = assay: Protection against erastin-induced ferroptosis in FA fibroblasts; format: cell-based, human; conditions: 25 μM and 50 μM, 4 h pretreatment, erastin 24 h
# Protocol: FIG. 10A, pretreatment of AST with varying concentrations in FA fibroblasts (GM04078, Coriell Institute) for 4 h followed by 4 h treatment with H2O2. Viability was measured using CCK8 assay. FIG. 10B, pretreatment of AST with varying concentrations in FA fibroblasts for 4 h followed by treatment with erastin for 24 h. Results are expressed as SEM with n≥3 for all concentrations. **P<0.005, for comparisons with the erastin group. Group comparisons are determined by a one-way analysis of variance (ANOVA) with Dunnet's correction post-hoc test using GraphPad Prism 8;
# We next sought to determine whether AST would protect FA fibroblasts against erastin-induced cell death. Erastin is an inducer of ferroptosis, an iron-dependent form of cell death. It acts as an inhibitor of the cystine glutamate antiporter (system Xc), inhibiting the import of cystine, which leads to downstream depletion of glutathione (GSH) and ultimately to elevated ROS production.
# [5] = system: ferritin heavy chain 1 (FTH1); assay: FTH1 protein expression, immunoblot; format: cell-based, human; conditions: 25 and 50 μM for 4 h, erastin 24 h
# Protocol: as §1, §2
# [6] = Decomposition of precursors in the presence of thiol (NAC / N-acetyl cysteine methyl ester), HPLC; format: physicochemical; conditions: 5 equiv NAC, PBS pH 7.4, HPLC
# Protocol: Initially, the decomposition of 1a was analyzed in the presence of 5 equiv of N-acetylcysteine (NAC) in PBS (pH 7.4) by HPLC. […] To investigate the mechanism, this reaction was monitored by UPLC-MS. […] Additionally, a small amount of unsymmetrical dialkyl polysulfide (pink highlight, R^1SSnSR^2, n=0-3) is observed, likely formed via NAC reaction with symmetrical dialkyl polysulfides (Scheme 1-5, eq. 7). As expected, a new peak at 5.65 min corresponding to N-acetyl cysteine-thiocarbonate 9a also is observed, confirming thiol attack at the perthiocarbonate carbonyl carbon of 1a to release RSSH. Due to the unstable nature of RSSH under these experimental conditions, the yield of the by-product 9a was measured as an indication of RSSH yield. The observation of RSSH-derived polysulfides formation as major products led us to anticipate the efficient formation of by-product 9a. […] The lower observed yield of 9a is likely due to its further reaction with RSSH under these conditions. […]
# To a solution of N-acetyl cysteine methyl ester (500 μM) in pH 7.4 phosphate buffer saline (100 mM) containing DTPA (100 μM), precursor 1a or 8 (100 μM) was added. […] At different time points, an aliquot of the reaction mixture (500 μL) was withdrawn and transferred to pre-cooled 0.1% formic acid (500 μL) and analyzed using HPLC. […]
# aconitase = assay: Aconitase protein expression, immunoblot; format: cell-based, human
# Protocol: Mitochondrial aconitase levels are unaffected by treatment of AST and H2O2. Immunoblot analysis was conducted utilizing enriched-mitochondrial pellets. Results are expressed as SEM with n≥3 for all concentrations;
# Given these encouraging results, it was critical to determine whether the RSSH's positive impact on aconitase activity was due to enhanced Fe—S cluster biosynthesis or increased aconitase expression.
# H9c2 cardiac myoblasts [7] = assay: H9c2 cell protection from H2O2-mediated oxidative stress, Sytox Green nucleic acid stain; format: cell-based, rat; conditions: Sytox viability assay, H2O2 200 μM
# Protocol: Jones and Singer, 2001. […] Tominaga et al., 1999.
# Cells were incubated for 2 h before media was removed and the cells gently washed with PBS (pH 7.4). Then, 180 μL of fresh media and 20 μL H2O2 diluted in H2O were added before cells were incubated for an additional 1 h.
compound,measurement,setting,value
"COC(=O)C(NC(C)=O)C(C)(C)SSC(=O)Oc1ccccc1 (centres unmarked) [Precursor 1a, Methyl 2-acetamido-3-methyl-3-((phenoxycarbonyl)disulfaneyl)butanoate]",cytoprotection against H2O2-induced toxicity,H9c2 cardiac myoblasts [1]; pre-treatment 4 h,dose-dependent decrease of H2O2-induced toxicity
same,cytoprotection against H2O2-induced toxicity,H9c2 cardiac myoblasts [1]; pre-treatment with 5 μM for 8 h,shows protection
same,cytoprotection against H2O2 stress,FA fibroblasts (GM04078),attenuated
same,erastin-induced lipid peroxide levels,FA fibroblasts [2],attenuated erastin-induced lipid peroxide levels
same,TFR1 protein level,[3],three-fold decrease
same,protection against erastin-induced ferroptosis,FA fibroblasts [4],nearly complete protection
same,FTH1 protein level,[5],two-fold increase
same,t1/2 of decomposition in the presence of thiol,[6],38.4 ± 6.6 s
same,aconitase protein expression,"aconitase; 25 μM, 12 h pretreatment, 12 h H2O2, listed as AST",does not alter aconitase protein expression; also recorded: unaffected
same,aconitase expression levels,aconitase; in combination with erastin,no significant impact
same,cytoprotection against H2O2-mediated toxicity,H9c2 cardiac myoblasts [7],consistently shows protective effects

# — patent publication US20250282720A1, “ALKYLSULFENYL THIOCARBONATES: PRECURSORS TO HYDROPERSULFIDES POTENTLY ATTENUATE OXIDATIVE STRESS” (The Johns Hopkins University, priority 2021, published 2025)
